From ChEMBL document CHEMBL5625194, “Identification of Pyrido[3,4-d]pyrimidine derivatives as RIPK3-Mediated necroptosis inhibitors” (Eur J Med Chem, 2023) come the findings set out here.

Test [1] is described as follows: Inhibition of RIPK1-RIPK3 (unknown origin) incubated for 4 hrs by ADP-glo luminescence assay. (In general: ADP-Glo turns the ADP formed in a reaction into a luminescent signal.)
The target in test [2] is T1, Mixed lineage kinase domain-like protein (Homo sapiens) (UniProt Q8NB16).
T1 sequence (whole entry): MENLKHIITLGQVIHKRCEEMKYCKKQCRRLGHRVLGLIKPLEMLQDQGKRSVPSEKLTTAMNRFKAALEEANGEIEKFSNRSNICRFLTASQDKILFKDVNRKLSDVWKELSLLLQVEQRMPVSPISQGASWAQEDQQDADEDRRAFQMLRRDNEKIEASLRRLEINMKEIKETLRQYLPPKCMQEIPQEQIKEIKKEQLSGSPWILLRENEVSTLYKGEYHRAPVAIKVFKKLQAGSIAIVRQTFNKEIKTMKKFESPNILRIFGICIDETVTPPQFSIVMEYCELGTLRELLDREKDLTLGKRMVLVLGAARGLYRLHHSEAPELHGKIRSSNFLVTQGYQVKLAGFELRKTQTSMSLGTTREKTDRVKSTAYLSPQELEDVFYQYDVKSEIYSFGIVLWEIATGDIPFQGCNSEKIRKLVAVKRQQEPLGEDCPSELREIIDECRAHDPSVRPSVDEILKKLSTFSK
The test can be described thus: Inhibition of MLKL phosphorylation in human HT-29 cells preincubated for 2 hrs followed by TCZ treatment and measured after 12 hrs by Western blot analysis. The settings on record: dose 10-50 µM, time 14.0 hrs. The class given is cell-based. On the technique in general: Immunoblotting shows a protein as a band on a membrane.

The test system of test [3] is Mus musculus. In words: Protection against TNF-alpha induced systemic inflammatory response syndrome (SIRS) in C57BL/6 mouse model assessed as increase in survival rate at 10 to 25 mg/kg, ip preincubated for 15 mins followed by TNF-alpha stimulation measured upto 60 hrs. The class given is functional, organism-based. The settings on record: dose 10-25 mg/kg, time <= 3615.0 min.

The target of test [4] is Receptor-interacting serine/threonine-protein kinase 3 (Homo sapiens, UniProt Q9Y572). The test can be described thus: Inhibition of human recombinant RIPK3 using MBP as substrate preincubated for 15 mins followed by substrate addition and measured after 120 mins in presence of ATP by ADP-Glo kinase assay.
Chain of Receptor-interacting serine/threonine-protein kinase 3 (Q9Y572 whole entry): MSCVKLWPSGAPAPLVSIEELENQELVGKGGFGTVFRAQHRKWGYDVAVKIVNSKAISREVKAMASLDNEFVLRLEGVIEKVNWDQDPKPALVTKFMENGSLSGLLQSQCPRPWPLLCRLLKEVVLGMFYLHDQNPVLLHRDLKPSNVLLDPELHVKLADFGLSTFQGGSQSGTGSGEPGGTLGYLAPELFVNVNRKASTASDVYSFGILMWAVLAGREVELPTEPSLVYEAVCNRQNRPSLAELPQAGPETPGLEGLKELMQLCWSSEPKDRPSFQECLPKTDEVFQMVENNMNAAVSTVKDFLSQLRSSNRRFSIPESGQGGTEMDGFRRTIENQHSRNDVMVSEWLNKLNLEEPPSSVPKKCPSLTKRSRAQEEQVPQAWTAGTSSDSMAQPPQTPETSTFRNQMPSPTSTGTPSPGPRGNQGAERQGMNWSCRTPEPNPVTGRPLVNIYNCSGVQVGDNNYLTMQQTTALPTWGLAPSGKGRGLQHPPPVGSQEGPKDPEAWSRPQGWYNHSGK
Test [5] has as its system ASPC1. In words: Anti-invasive activity in human ASPC1 cells assessed as suppression of cell invasion at 25 to 50 uM incubated for 15 mins. To be noted: dose 25-50 µM. The class given is functional, cell-based.
The subject of test [6] is ASPC1. In words: Downregulation of CXCL5 expression in TCZ induced human ASPC1 cells at 25 to 50 uM under conditioned media by ELISA method. The test is classed as functional, cell-based. The settings on record: dose 25-50 µM. Background: In an ELISA, binding on a coated surface is turned into a signal by an enzyme label.
The subject of test [7] is U-937. In words: Anti-necroptic activity in human U-937 cells assessed as inhibition of TSZ induced necroptosis at 25 to 50 uM pretreated with compound for 2 hrs followed by TSZ stimulation and measured after 6 hrs. The test is classed as functional, cell-based. The settings on record: dose 25-50 µM, time 8.0 hrs.
Test [8] concerns ASPC1. In words: Anti-migration activity in TCZ induced human ASPC1 cells assessed as suppression of cell migration preincubated with compound for 15 mins followed by TCZ stimulation and measured after 4 hrs under conditioned media by crystal violet staining based transwell migration assay. The test is classed as functional. The settings on record: dose 25-50 µM, time 255.0 min.

For test [9], the system named is Mus musculus. In words: Protection against TNF-alpha induced systemic inflammatory response syndrome (SIRS) in C57BL/6 mouse model assessed as decrease in IL-6 production in serum at 10 to 25 mg/kg, ip preincubated for 15 mins followed by TNF-alpha stimulation measured after 4 hrs by ELISA method. The settings on record: dose 10-25 mg/kg, time 255.0 min. The test is classed as functional, organism-based.

Test [10] concerns HT-29. In words: Anti-necroptic activity in human HT-29 cells assessed as decrease in TCZ induced ROS level pretreated with compound for 2 hrs followed by TSZ stimulation and measured after 12 hrs by DCFH-DA staining based assay. The test is classed as functional, cell-based. To be noted: time 14.0 hrs.
For test [11], the system named is ASPC1. The test can be described thus: Anti-migration activity in human ASPC1 cells assessed as suppression of cell migration at 25 to 50 uM incubated for 15 mins by crystal violet staining based transwell migration assay. The test is classed as functional. To be noted: dose 25-50 µM.
Test [12] has as its target T1, Mixed lineage kinase domain-like protein (Homo sapiens). In words: Inhibition of MLKL phosphorylation in TCZ induced human HT-29 cells assessed as decrease in phosphorylated MLKL level at 50 uM pretreated with compound for 2 hrs followed by TSZ-induction and measured after 12 hrs by Western blot analysis relative to control. The class given is cell-based. To be noted: time 14.0 hrs.

Test [13] addresses T2, Receptor-interacting serine/threonine-protein kinase 1 (Homo sapiens, UniProt Q13546).
T2 sequence (Q13546 whole entry): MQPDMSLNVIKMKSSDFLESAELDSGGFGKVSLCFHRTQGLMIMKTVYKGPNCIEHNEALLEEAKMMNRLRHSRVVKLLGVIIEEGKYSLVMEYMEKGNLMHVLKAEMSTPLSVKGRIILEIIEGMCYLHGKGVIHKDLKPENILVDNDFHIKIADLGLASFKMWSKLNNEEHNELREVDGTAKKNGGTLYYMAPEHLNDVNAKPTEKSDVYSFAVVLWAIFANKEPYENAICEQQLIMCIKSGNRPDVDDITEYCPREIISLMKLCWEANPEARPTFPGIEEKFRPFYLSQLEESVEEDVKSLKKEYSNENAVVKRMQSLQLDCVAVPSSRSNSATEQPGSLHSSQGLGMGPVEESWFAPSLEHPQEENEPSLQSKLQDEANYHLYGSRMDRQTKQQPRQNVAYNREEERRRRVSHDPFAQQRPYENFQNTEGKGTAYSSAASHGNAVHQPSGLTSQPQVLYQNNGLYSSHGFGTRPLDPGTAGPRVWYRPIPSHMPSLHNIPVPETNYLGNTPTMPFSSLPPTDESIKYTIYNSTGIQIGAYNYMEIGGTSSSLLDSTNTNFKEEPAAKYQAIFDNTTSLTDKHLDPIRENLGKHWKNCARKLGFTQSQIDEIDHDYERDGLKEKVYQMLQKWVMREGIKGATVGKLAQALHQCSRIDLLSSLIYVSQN
The test can be described thus: Inhibition of human recombinant RIPK1 using MBP as substrate preincubated for 15 mins followed by substrate addition and measured after 120 mins in presence of ATP by ADP-Glo kinase assay.

In test [14] the test system is HT-29. The test can be described thus: Anti-necroptic activity in TSZ induced human HT-29 cells assessed as decrease in PI positive cells to Hoechst positive cells ratio at 25 to 50 uM pretreated with compound for 2 hrs followed by TSZ stimulation and measured after 12 hrs by microscopy based analysis. The class given is functional, cell-based. To be noted: dose 25-50 µM, time 14.0 hrs.

Test [15] concerns HT-29. The test can be described thus: Anti-necroptic activity in human HT-29 cells assessed as rescue of TSZ induced necroptosis at upto 50 uM measured after 72 hrs by cell titer-glo assay. The class given is functional, cell-based.
Test [16] addresses T1, Mixed lineage kinase domain-like protein (Homo sapiens). In words: Inhibition of MLKL phosphorylation in TSZ-induced human HT-29 cells assessed as decrease in MLKL oligomerization preincubated for 2 hrs followed by TCZ treatment and measured after 12 hrs. The class given is cell-based. To be noted: dose 25-50 µM, time 14.0 hrs.
Test [17] concerns U-937. The test can be described thus: Anti-necroptic activity in human U-937 cells assessed as rescue of TSZ induced necroptosis at upto 50 uM measured after 72 hrs by cell titer-glo assay. The class given is functional, cell-based.
The subject of test [18] is HT-29. In words: Anti-necroptic activity in human HT-29 cells assessed as reduction in TSZ induced HMGB1 secretion at 25 uM pretreated with compound for 2 hrs followed by TSZ stimulation and measured after 12 hrs. The test is classed as functional, cell-based. The settings on record: time 14.0 hrs.
Test [19] deals with HT-29. In words: Anti-necroptic activity in human HT-29 cells assessed as inhibition of TSZ induced necroptosis at 25 to 50 uM pretreated with compound for 2 hrs followed by TSZ stimulation and measured after 12 hrs. The test is classed as functional, cell-based. The settings on record: dose 25-50 µM, time 14.0 hrs.
The test system of test [20] is HT-29. In words: Antiproliferative activity against human HT-29 cells assessed as reduction in cell viability measured after 72 hrs by celltiter glo assay. The test is classed as functional.
Test [21] deals with T3, Receptor-interacting serine/threonine-protein kinase 1 (Homo sapiens) (UniProt Q13546).
T3 sequence (whole entry): T2 sequence (Q13546 whole entry)
The test can be described thus: Inhibition of RIPK1 phosphorylation in human HT-29 cells preincubated for 2 hrs followed by TCZ treatment and measured after 12 hrs by Western blot analysis. The settings on record: dose 10-50 µM, time 14.0 hrs. The class given is cell-based.

The test system of test [22] is Mus musculus. The test can be described thus: Protection against TNF-alpha induced systemic inflammatory response syndrome (SIRS) in C57BL/6 mouse model assessed as body temperature loss administered as ip dose preincubated for 15 mins followed by TNF-alpha stimulation measured upto 15 hrs. The test is classed as functional, organism-based. The settings on record: dose 10-25 mg/kg, time <= 915.0 min.

The test system of test [23] is ASPC1. In words: Anti-invasive activity in TCZ induced human ASPC1 cells assessed as suppression of cell invasion preincubated with compound for 15 mins followed by TCZ stimulation and measured after 4 hrs under conditioned media. To be noted: dose 25-50 µM, time 255.0 min. The class given is functional, cell-based.
The test system of test [24] is U-937. The test can be described thus: Anti-necroptic activity in TSZ induced human U-937 cells assessed as decrease in PI positive cells to Hoechst positive cells ratio at 25 to 50 uM pretreated with compound for 2 hrs followed by TSZ stimulation and measured after 6 hrs by microscopy based analysis. The class given is functional, cell-based. To be noted: dose 25-50 µM, time 8.0 hrs.

pIC50: −log10 of the molar value. Calls of active or inactive are those of the source. The rule behind the calls is not given here.

One may read the pIC50 as −log10 of the IC50, conventionally taken in molar units. What is called inhibition is the percentage by which the read-out fell short of the control. Usually CC50 stands for the concentration at which the toxic effect on the cells reaches its halfway point.

The molecule `Cc1ccc(C(=O)Nc2ccc(CN3CCN(C)CC3)c(C(F)(F)F)c2)cc1C#Cc1cnc2cccnn12` [PONATINIB] had a pIC50 in test [1] of 7.92.

On to `C=Cc1cc2c(Nc3ccc4scnc4c3)ncnc2cn1`, for which the inhibition entry in test [2] is “Dose-Dependent Effect”; in test [12], 86.3%; in test [16] it was “Dose-Dependent Effect”; in test [21], “Dose-Dependent Effect”. Besides, the outcome in the test with Mus musculus [3], in the test on ASPC1 [6], in the test with U-937 [7], with Mus musculus [9], in the test on HT-29 [14] and in the test with HT-29 [15] was Active. The outcome in the test with U-937 [17], with HT-29 [18], with HT-29 [19] and in the test with U-937 [24] was Active. For the same molecule, the negative logarithm of the IC50 (pIC50) in test [4] is 7.85; in test [13], 5.09. Besides, the outcome in the test on ASPC1 [5] and in the test with ASPC1 [11] was inactive. Moreover, the Activity result in the test on ASPC1 [8], in the test on HT-29 [10], in the test on Mus musculus [22] and with ASPC1 [23] was “Dose-Dependent Effect” in each case. The CC50 in the test on HT-29 [20] was over 50000 nM.
